These results are taken from US11331290B2, “Niclosamide for the treatment of cancer metastasis” (Max-Delbrück-Centrum für Molekulare Medizin in der …, priority 2011, dated 2022).

SMILES strings stand for the structures.

Common to all, as to format: cell-based, human
One assay deals with HCT116 cells. Briefly: Boyden chamber transwell migration assay. As to conditions: for cell migration rate, mean %: 1 μM daily for 3 days. As for the experimental part: HCT116, SW620, LS174T, SW480 and DLD-1 cells were used in cell migration and invasion analysis performed with Boyden chamber assay. 400 μL containing 2.5×10^5 cells were seeded into each transwell chamber with filter membranes of 12.0 μm pore size (Millipore, Schwalbach, Germany). For invasion filter membranes were coated with 50 μL Matrigel (diluted 1:3 in RPMI-1640; BD Biosciences) 10 minutes before cells were seeded. Fresh medium (600 μL) were added to the bottom chamber and cells were allowed to attach to the insets for 15 hours. […] Afterwards insets were removed and cells that had migrated through the membrane to the lower chamber were trypsinized and counted in a Neubauer chamber (LO-Laboroptik, Bad Homburg, Germany). Each well was counted ten times. Each migration or invasion experiment was performed in duplicate. The average number of migrated or invaded cells was determined for at least three independent experiments.
(A) Chemical structure of niclosamide and its derivatives. In 2D illustrations the niclosamide structure was compared with the structure of niclosamide derivatives; marked in solid circles or boxes are added chemical groups, marked in grey and surrounded by dotted lines are removed chemical groups. In 3D illustrations grey clouds represent van der Waals surface, red and blue indicate negative and positive charges, respectively. (B) S100A4 expression under treated conditions. HCT116 cells were treated with 1 μM niclosamide or one of the niclosamide derivatives for 24 hours. S100A4 expression was analyzed by qRT-PCR and immunoblot. (C) Cell migration under treated conditions. HCT116 cells were treated with 1 μM niclosamide or one of its derivatives for 24 hours and cell migration was determined by Boyden chambder assay. Cells migrated to the lower chamber were counted and normalized to the number of migrated, solvent-treated HCT116 cells. Comparison of niclosamide or derivative-treated vs. solvent-treated cells was performed by two-sided one-way analysis of variance and Bonferroni post hoc multiple comparison test. Data is given as mean±SE at least four independent experiments each performed in duplicates.
For WNT pathway analysis the following cells were applied: HCT116 cells (heterozygous for gain-of-function-mutated CTNNB1; wt/mut), HAB-68mut cells (deletion mutant of HCT116, expressing only gain-of-function-mutated CTNNB1: −/mut) and HAB-92 wt cells (deletion mutant of HCT116, expressing only wild-type CTNNB1: wt/−). (A) CTNNB1 genotype dependent effect of niclosamide on LEF/TCF transcription factor reporter gene expression. Cells were treated with 1 μM niclosamide for 24 hours. Reporter gene expression was determined by luciferase activity measurement. For each condition and cell line TOPflash expression was normalized to FOPflash expression. (B) CTNNB1 genotype dependent effect of niclosamide on S100A4 expression. Cells were treated with 1 μM niclosamide for 24 hours. S100A4 expression was analyzed by qRT-PCR and immunoblot. (C) CTNNB1 genotype dependent effect of niclosamide on migration rates. Cells were treated with 1 μM niclosamide for 24 hours and cell migration was determined by Boyden chamber assay. Data represents mean±SE of at least three independent experiments. Differences were analyzed by Student's t test (n.s.; not statistically significant). (D) Nuclear localization of CTNNB1 under niclosamide treatment. Nuclear extracts of HCT116 cells treated with the indicated concentrations of niclosamide for 18 hours were analyzed by immunoblot. (E) Effect of niclosamide on CTNNB1/TCF complex. Nuclear extracts of HCT116 cells treated with the indicated concentrations of niclosamide for 18 hours were analyzed by EMSA for the TCF-binding site of the S100A4 promoter. Supershift was performed by addition of a monoclonal anti-CTNNB1 antibody. (F) Presence of CTNNB1 on the S100A4 promoter under niclosamide treatment. HCT116 cells were treated with 1 μM niclosamide for 18 hours and processed for ChIP assay. […]

In the next assay the test system is HCT116-vector cells. Put plainly: Wound healing assay (directed migration). Particulars: 1 μM daily, 4 days. As for the experimental part: (§1) For wound healing assay HCT116, SW620, LS174T, SW480 and DLD-1 cells were grown to form 60% confluent monolayers of cells in which a wound of about 300 μm width was inflicted with a sterile pipette tip. The medium was exchanged to remove non-adherent cells and the wounded monolayer was treated with 1 μM niclosamide or the respective amount of DMSO every 24 hours for 4 consecutive days. The progress of wound closure was monitored with microphotographs of 10× magnification taken with the Leica DM IL light microscope (Leica Microsystems) on day 0 and day 4. The wound healing experiment was performed three independent times.
(§2) (A) Cell migration of HCT116-vector and HCT116-S100A4 cells exposed to niclosamide treatment. Cells were treated with 1 μM niclosamide for 24 hours and migration rates were measured with Boyden chamber assay. […] Cells were treated with 1 μM niclosamide for 24 hours and cell invasion was determined by Boyden chamber assay. (C) Directed migration of HCT116-vector and HCT116-S100A4 cells exposed to niclosamide treatment analyzed by wound healing assay. […] Cells were treated daily with 1 μM niclosamide and cell viability was determined with MTT assay. […] (F) Quantification of colonies formed. Number of colonies (of more than 4 cells) was counted and normalized to solvent-treated HCT116-vector cells. […]

Another assay has as its system HCT116-S100A4 cells. Put plainly: Wound healing assay (directed migration). As to conditions: 1 μM daily, 4 days. The procedure: as §1, §2

With `O=C(Nc1ccc([N+](=O)[O-])cc1Cl)c1cc(Cl)ccc1O` [niclosamide, 2′,5-dichloro-4′-nitrosalicylanilide], the “cell migration rate, mean %” value with HCT116 cells (24 hours post-treatment, control 100.0%) is 18.7%; with HCT116 cells (48 hours post-treatment, control 100.0%), 12.2%; with HCT116 cells (72 hours post-treatment, control 108.8%), 10.4%. Besides, the “migration rate, mean difference control vs niclosamide” value in the assay with HCT116 cells (1 μM, 24 h (relative scale)) is listed as 0.54. The “migration rate, mean (relative to HCT116 control)” value in the assay on HCT116 cells (1 μM, 24 h, control 1.00) is 0.45. For the same compound, the “migration, mean difference control vs niclosamide” value with HCT116 cells (24 hours post-treatment) worked out at 81.3%; in the assay on HCT116 cells (48 hours post-treatment) it was 87.8%; with HCT116 cells (72 hours post-treatment), 98.4%. Besides, the wound closure entry in the assay on HCT116-vector cells was “impaired”; in the assay with HCT116-S100A4 cells, “able to migrate into the wound and close the gap”.
